Measured values reported in publication PMC8401404 (Molecules, 2021).
Structures can show the parent of a compound that is named as a salt. One block for each compound: values may come before it.

Legend:
[1] = test system: poly(dAdT)2 (DNA, polymer) AT; test: UV thermal melting at 260 nm; conditions: Na+ (sodium cacodylate, I = 0.05 M), pH 7.0, r = [compound]/[polynucleotide phosphate] = 0.3, error ±0.5, per base
[2] = test system: poly dA-poly dT (DNA, polymer) A/T; test: CD titration; conditions: Na+ (sodium cacodylate, I = 0.05 M), pH 7.0, 25 °C, polynucleotide 3.0 × 10^-5 M
[3] = test system: poly dA-poly dT (DNA, polymer) A/T; test: UV thermal melting at 260 nm; conditions: Na+ (sodium cacodylate, I = 0.05 M), pH 7.0, r = [compound]/[polynucleotide phosphate] = 0.3, error ±0.5, per base
[4] = test system: poly(dAdT)2 (DNA, polymer) AT; test: CD titration; conditions: Na+ (sodium cacodylate, I = 0.05 M), pH 7.0, 25 °C, polynucleotide 3.0 × 10^-5 M
[5] = test system: A549; test: MTS cytotoxicity assay, 2D cell culture; conditions: read-out: Cytotoxicity Assay IC50 ± SD; A549 2D, 72 h, MTS; n = 2
[6] = test system: NCI-H358; test: MTS cytotoxicity assay, 2D cell culture; conditions: read-out: Cytotoxicity Assay IC50 ± SD; NCI-H358 2D, 72 h, MTS; n = 2
[7] = test system: HCC827; test: MTS cytotoxicity assay, 2D cell culture; conditions: read-out: Cytotoxicity Assay IC50 ± SD; HCC827 2D, 72 h, MTS; n = 2
[8] = test system: A549; test: BrdU proliferation assay, 3D hanging drop cell culture; format: cell-based, human; conditions: A549, 3D, BrdU, n = 2, read-out: Proliferation Assay IC50 ± SD
[9] = test system: NCI-H358; test: as above; format: cell-based, human; conditions: NCI-H358, 3D, n = 2, read-out: Proliferation Assay IC50 ± SD
[10] = test system: HCC827; test: as above; format: cell-based, human; conditions: HCC827, 3D, BrdU, n = 2, read-out: Proliferation Assay IC50 ± SD
[11] = test system: A549; test: Cytotoxicity (viability) assay, 3D hanging drop cell culture; conditions: read-out: Cytotoxicity Assay IC50 ± SD; A549 3D; A549, 3D hanging drop spheres, 72 h; n = 2
[12] = test system: NCI-H358; test: as above; conditions: read-out: Cytotoxicity Assay IC50 ± SD; NCI-H358 3D; NCI-H358, 3D hanging drop spheres, 72 h; n = 2
[13] = test system: HCC827; test: as above; conditions: read-out: Cytotoxicity Assay IC50 ± SD; HCC827 3D; HCC827, 3D hanging drop spheres, 72 h; n = 2
[14] = test system: S. cerevisiae ATCC 7752; test: Broth microdilution testing (CLSI); format: cell-based, Saccharomyces cerevisiae; conditions: broth microdilution, 16–24h at 37 °C; read-out: MIC S. cerevisiae ATCC 7752
Method: (§1) Broth microdilution testing was performed according to CLSI (Clinical Laboratory Standards Institute) guidelines. MIC (minimal inhibitory concentration) value was defined as the last tested concentration of compound at which there is no visible growth of bacteria. […] Clinical and Laboratory Standards Institute (CLSI) guidelines.

[15] = test system: A549; test: BrdU proliferation assay, 2D cell culture; format: cell-based, human; conditions: A549, 2D, BrdU, n = 2, read-out: Proliferation Assay IC50 ± SD
[16] = test system: NCI-H358; test: BrdU proliferation assay, 2D cell culture; format: cell-based, human; conditions: NCI-H358, 2D, n = 2, read-out: Proliferation Assay IC50 ± SD
[17] = test system: HCC827; test: BrdU proliferation assay, 2D cell culture; format: cell-based, human; conditions: HCC827, 2D, BrdU, n = 2, read-out: Proliferation Assay IC50 ± SD
[18] = test system: human lung fibroblast cell line MRC-5; test: MTS cytotoxicity assay, 2D cell culture, normal lung fibroblasts; conditions: read-out: Cytotoxicity Assay IC50 ± SD; MRC-5 2D; MRC-5 normal lung fibroblasts, 2D, 72 h, MTS; n = 2
[19] = test system: E. coli ATCC 25922; test: Broth microdilution testing (CLSI); format: cell-based, Escherichia coli; conditions: broth microdilution, 16–24h at 37 °C; read-out: MIC E. coli ATCC 25922
Method: as §1

[20] = test system: S. aureus ATCC 29213; test: Broth microdilution testing (CLSI); format: cell-based, Staphylococcus aureus; conditions: broth microdilution, 16–24h at 37 °C; read-out: MIC S. aureus ATCC 29213
Method: as §1

ΔTm [1]: 6.2 °C
binding [2]: yes
ΔTm [3]: 11.7 °C
melting point: 262 to 269 °C
binding [4]: yes
SMILES: Clc1ccc(-c2ccc(-c3nc4cc(C5=NCCN5)ccc4[nH]3)o2)cc1 (as salt: hydrochloride) [Compound 15, 2-[5-(4-Chlorophenyl)furan-2-yl]-5(6)-(4,5-dihydro-1H-imidazol-2-yl)benzimidazole hydrochloride]

SMILES: N#CC(=Cc1ccc(-c2ccc([N+](=O)[O-])cc2)o1)c1nc2cc([N+](=O)[O-])ccc2[nH]1 [Compound 18, (E,Z)-2-(5(6)-Nitrobenzimidazol-2-yl)-3-[5-(4-nitrophenyl)furan-2-yl]acrylonitrile]
IC50 [5]: > 50 µM
IC50 [6]: 3.5 ± 1.14 µM
IC50 [7]: > 50 µM
IC50 [8]: > 100 µM
IC50 [9]: > 100 µM
IC50 [10]: > 100 µM
IC50 [11]: > 100 µM
IC50 [12]: > 100 µM
IC50 [13]: > 100 µM
MIC [14]: >100 µM
IC50 [15]: > 50 µM
IC50 [16]: > 50 µM
IC50 [17]: > 50 µM
IC50 [18]: > 50 µM
MIC [19]: >100 µM
MIC [20]: >100 µM
